This assay has as its target human 3β-HSD1. The assay can be described thus: 3β-HSD1 inhibition, colorimetric NADH detection assay. It counts as biochemical. To be noted: purified recombinant human 3β-HSD1, 50 μM DHEA, 2 mM NAD+, 1 hour, room temperature, duplicate 10-point CRC; read-out: IC50 (nM), in vitro NADH inhibition. An excerpt: Enzymatic turnover was quantified through NADH generation by purified, recombinant human 3β-HSD1 (expressed in Sf9 insect cells) in the presence of steroidal substrate trans-Dehydroandrosterone (DHEA) that was placed slightly above the experimentally determined Km and saturating amounts of co-factor Nicotinamide adenine dinucleotide (NAD^+). The sequence of recombinant human 3β-HSD1 used is […] […] […] […] […] […] […] (SEQ ID NO: 3). DHEA and NAD+ were enzymatically converted to androstenedione and NADH, respectively. Final NADH concentrations were spectroscopically quantified using a commercially available Amplite™ Colorimetric NADH Assay Kit which utilizes an NADH probe with an absorbance wavelength of 460 nm. Enzymatic assays with a final volume of 25 μL were ran in a 384-well, Greiner Bio-One UV-STAR® assay plate in 50 mM TRIS pH 8.0 assay buffer. […] Compound stocks at 10 mM in DMSO were serial diluted 5-fold in DMSO to generate an ECHO® compatible source plate. 125 nL of DMSO, Trilostane, or serial diluted compounds were then acoustically transferred into an empty UV-STAR® assay plate to give a final assay concentration of 0.5% v/v DMSO. The stamp volume and dilution scheme can be adjusted to accommodate compound potency. The assay can tolerate up to a 5% v/v DMSO final assay concentration. 15 μL of 1 μg purified 3β-HSD1 and 50 μM DHEA (final assay volume concentration) was dispensed per well into the stamped plate, centrifuged for 1 minute at 1000 RPM, covered, and allowed to incubate for 15 minutes at room temp. Enzymatic reactions were initiated upon the addition of 10 μL of NAD^+ diluted in assay buffer to give a final assay volume concentration of 2 mM. The assay plate was centrifuged for 1 minute at 1000 RPM, covered, and incubated at room temperature for 1 hour. 25 μL Amplite™ Colorimetric NADH Assay Kit detection solution (prepared as recommended) was added to all reaction wells, the plate centrifuged for 1 minute at 1000 RPM, covered, and incubated for 15 minutes. Final absorbance values (λ=460 nm) are spectroscopically determined on BioTek® Cytation5 or Synergy4 plate readers. […] From the background subtracted values, the non-inhibited enzyme signal (DMSO treated) was averaged from 32 control reactions. The percent inhibition value was calculated by: % inhibition=(1−((background subtracted inhibited reaction)/(background subtracted non-inhibited average)))*100. The resulting percent inhibition was then plotted in duplicate against corresponding concentration values. The resulting CRCs were fit with a four parameter, variable slope log (inhibitor) vs response equation where Y=bottomvalue+ (topvalue−bottomvalue)/(1+10^((log IC50−X)*Hillslope)) to determine the IC50 values for tested compounds.

The record followed here is patent US20250241905A1, “3-BETA-HSD1 INHIBITORS AND COMPOSITIONS AND USES THEREOF” (The Cleveland Clinic Foundation, priority 2022, published 2025).

Chain of human 3β-HSD1 (P14060 2-373 limits assumed): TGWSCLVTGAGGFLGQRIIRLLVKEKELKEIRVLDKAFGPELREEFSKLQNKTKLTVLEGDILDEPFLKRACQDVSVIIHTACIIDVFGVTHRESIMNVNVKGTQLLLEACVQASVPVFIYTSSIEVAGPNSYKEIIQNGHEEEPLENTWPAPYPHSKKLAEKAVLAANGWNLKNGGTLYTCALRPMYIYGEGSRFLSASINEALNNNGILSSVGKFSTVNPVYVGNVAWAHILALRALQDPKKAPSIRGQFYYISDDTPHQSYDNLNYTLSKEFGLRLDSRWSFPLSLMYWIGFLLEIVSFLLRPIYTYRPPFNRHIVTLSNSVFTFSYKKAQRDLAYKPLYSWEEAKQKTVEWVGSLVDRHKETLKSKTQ

The term IC50 denotes the concentration that gives 50% inhibition. With `N#Cc1cc(-c2ccc3c(n2)CCCC3=O)ccc1O` [Compound 3, 2-hydroxy-5-(5-oxo-5,6,7,8-tetrahydroquinolin-2-yl)benzonitrile], the IC50 is 651 nM.
The figure for `CC1(C)CCc2nc(-c3ccc(O)c(C#N)c3)ccc2C1=O` [Compound 4, 5-(6,6-dimethyl-5-oxo-5,6,7,8-tetrahydroquinolin-2-yl)-2-hydroxybenzonitrile] is 1860 nM; for `CC1(C)CCc2nc(-c3ccc(O)c(F)c3)ccc2C1=O` [Compound 6, 2-(3-fluoro-4-hydroxyphenyl)-6,6-dimethyl-7,8-dihydroquinolin-5(6H)-one] it is 51 nM; for `Oc1c(F)cc(-c2ccc3c(n2)CCCC3O)cc1F` (stereo not shown) [Compound 13] it is 748 nM.
For `CC1(O)CCCc2nc(-c3cc(F)c(O)c(F)c3)ccc21` (stereo not shown) [Compound 14], the half-maximal inhibitory concentration (IC50) amounted to 339 nM.
For `NC1CCCc2nc(-c3cc(F)c(O)c(F)c3)ccc21` (stereo not shown) [Compound 15], the IC50 came out at 3440 nM.
In the case of `CC1(C)CCc2nc(-c3cc(F)c(O)c(F)c3)ccc2C1(O)Cc1ccccc1` (stereo not shown) [Compound 17], the IC50 is 227 nM.
As to `CC1(C)CCc2nc(-c3ccc(O)c(F)c3)ccc2C1(C)O` (stereo not shown) [Compound 18], the IC50 was 504 nM.
`CC1(C)CCc2nc(-c3cc(F)c(O)c(F)c3)ccc2C1(O)c1ccccc1` (stereo not shown) [Compound 19]: the IC50 was 314 nM.
Consider `O=C1CCCc2nc(-c3cnc(O)c(F)c3)ccc21` [Compound 21], for which the IC50 is 6100 nM.
For the molecule `O=C1CCc2nc(-c3cc(F)c(O)c(F)c3)ccc21` [Compound 22], the IC50 came to 297 nM.
`O=C1CCCc2nc(-c3cc(F)c(O)c(Cl)c3)ccc21` [Compound 23]: the IC50 was determined as 49 nM.
The figure for `O=C1CCCc2nc(-c3cc(F)c(O)cc3F)ccc21` [Compound 24] is 83 nM; for `O=C1CCNc2nc(-c3cc(F)c(O)c(F)c3)ccc21` [Compound 26] it is 218 nM; for `Cc1c(-c2ccc3c(n2)CCCC3=O)cc(F)c(O)c1F` [Compound 27] it is 367 nM.
Take `O=C1CCCc2nc(-c3c(F)c(F)c(O)c(F)c3F)ccc21` [Compound 28]: the concentration for half-maximal inhibition (IC50) was determined as 3000 nM.
For `O=C1c2ccc(-c3cc(F)c(O)c(F)c3)nc2CCC1CC1CC1` (stereo not shown) [Compound 29], the IC50 amounted to 130 nM.
`O=C1c2ccc(-c3cc(F)c(O)c(F)c3)nc2CCC12CCC2` [Compound 30]: the IC50 came out at 303 nM.
As to `Cc1cc(-c2cc(F)c(O)c(F)c2)nc2c1C(=O)CCC2` [Compound 31], the IC50 amounted to 991 nM.
The figure for `O=C1CCCCc2nc(-c3cc(F)c(O)c(F)c3)ccc21` [Compound 32] is 90 nM.
For `CC1(C)CCCc2nc(-c3cc(F)c(O)c(F)c3)ccc2C1=O` [Compound 33], the IC50 was 292 nM.
Turning to `CC1(O)CCc2nc(-c3cc(F)c(O)c(F)c3)ccc2C1=O` (stereo not shown) [Compound 34], the IC50 was 446 nM.
As to `CC1(C#N)CCc2nc(-c3cc(F)c(O)c(F)c3)ccc2C1=O` (stereo not shown) [Compound 35], the half-inhibitory concentration (IC50) worked out at 92 nM.
Take `CC1(C(F)(F)F)CCc2nc(-c3cc(F)c(O)c(F)c3)ccc2C1=O` (stereo not shown) [Compound 36]: the IC50 was 59 nM.
On to `O=C(O)CC1CCc2nc(-c3cc(F)c(O)c(F)c3)ccc2C1=O` (stereo not shown) [Compound 37], for which the half-inhibitory concentration (IC50) was 2840 nM.
The figure for `O=C1c2ccc(-c3cc(F)c(O)c(F)c3)nc2CCC1Cc1ccccn1` (stereo not shown) [Compound 38] is 272 nM; for `O=C1c2ccc(-c3cc(F)c(O)c(F)c3)nc2CCC1Cc1cccnc1` (stereo not shown) [Compound 39] it is 249 nM; for `O=C1c2ccc(-c3cc(F)c(O)c(F)c3)nc2CCC1Cc1ccncc1` (stereo not shown) [Compound 40] it is 212 nM.
In the case of `CC1(C)CC(=O)c2ccc(-c3cc(F)c(O)c(F)c3)nc2C1` [Compound 42], the IC50 is 287 nM.
For the molecule `CCC1(O)CCCc2nc(-c3cc(F)c(O)c(F)c3)ccc21` (stereo not shown) [Compound 43], the IC50 was 365 nM.
Turning to `CCc1cc(-c2cc(F)c(O)c(F)c2)nc2c1C(=O)CCC2` [Compound 44], the IC50 came out at 1280 nM.
In the case of `CC(C)c1cc(-c2cc(F)c(O)c(F)c2)nc2c1C(=O)CCC2` [Compound 45], the IC50 came out at 8610 nM.
Turning to `CC1(F)CCc2nc(-c3cc(F)c(O)c(F)c3)ccc2C1=O` (stereo not shown) [Compound 46], the IC50 came to 42 nM.
As to `O=C1c2ccc(-c3cc(F)c(O)c(F)c3)nc2CC[C@@H]1Cc1ccccc1` [Compound 47], the concentration for half-maximal inhibition (IC50) is 177 nM.
As for `O=C1c2ccc(-c3cc(F)c(O)c(F)c3)nc2CC[C@H]1Cc1ccccc1` [Compound 48], the IC50 came out at 19 nM.
As to `CC1(C)CCc2nc(-c3ccc(O)c(Cl)c3)ccc2C1=O` [Compound 49], the IC50 is 26 nM.
On to `CC1(C)CCc2nc(-c3ccc(O)c(C(F)(F)F)c3)ccc2C1=O` [Compound 50], for which the IC50 amounted to 1500 nM.
Consider `O=C1c2ccc(-c3cc(F)c(O)c(F)c3)nc2CCC1F` (stereo not shown) [Compound 51], for which the IC50 came out at 149 nM.
The figure for `CC1(CO)CCc2nc(-c3cc(F)c(O)c(F)c3)ccc2C1=O` (stereo not shown) [Compound 52] is 222 nM.
For `COC1CCCc2nc(-c3cc(F)c(O)c(F)c3)ccc21` (stereo not shown) [Compound 53], the concentration for half-maximal inhibition (IC50) was determined as 204 nM.
For the molecule `CC1(C)CCc2nc(-c3cc(F)c(O)c(Cl)c3)ccc2C1=O` [Compound 54], the IC50 was determined as 107 nM.
As to `CC[C@]1(C)CCc2nc(-c3cc(F)c(O)c(F)c3)ccc2C1=O` [Compound 56], the IC50 turned out to be 110 nM.
The figure for `C[C@]1(Cc2ccccc2)CCc2nc(-c3cc(F)c(O)c(F)c3)ccc2C1=O` [Compound 57] is 78 nM; for `C[C@@]1(Cc2ccccc2)CCc2nc(-c3cc(F)c(O)c(F)c3)ccc2C1=O` [Compound 58] it is 55 nM.
As for `CN(C)CC1(C)CCc2nc(-c3cc(F)c(O)c(F)c3)ccc2C1=O` (stereo not shown) [Compound 60], the IC50 came out at 1170 nM.
With `O=C1c2ccc(-c3cc(F)c(O)cc3F)nc2CCC12CC2` [Compound 61], the IC50 is 127 nM.
Consider `O=C1c2ccc(-c3cc(F)c(O)c(F)c3)nc2CCC12COCOC2` [Compound 62], for which the IC50 was 541 nM.
With `O=C1c2ccc(-c3cc(F)c(O)c(F)c3)nc2CCC12COC2` [Compound 63], the IC50 worked out at 370 nM.
Turning to `O=C1CCOc2nc(-c3cc(F)c(O)c(F)c3)ccc21` [Compound 64], the IC50 was found to be 433 nM.
Turning to `CC1(C)CCc2nc(-c3cnc(O)c(F)c3)ccc2C1=O` [Compound 65], the IC50 was greater than 20000 nM.
As to `CC1(C)CCc2nc(-c3cc(F)c(O)c(F)c3)ncc2C1=O` [Compound 66], the IC50 is 414 nM.
The figure for `CC1(C)CCc2nc(-c3cc(F)c(O)c(C#N)c3)ccc2C1=O` [Compound 67] is 1880 nM; for `CN1CC(C)(C)C(=O)c2ccc(-c3cc(F)c(O)c(F)c3)nc21` [Compound 68] it is 308 nM; for `CC1(C)CNc2nc(-c3cc(F)c(O)c(F)c3)ccc2C1=O` [Compound 69] it is 470 nM.
In the case of `O=C1CCCc2nc(-c3cc(F)c(O)c(F)c3)cnc21` [Compound 70], the IC50 stood at 7640 nM.
On to `Cc1cc(-c2ccc3c(n2)CCC(C)(C)C3=O)cc(F)c1O` [Compound 71], for which the IC50 came out at 67 nM.
As to `CC1(C)Cc2nc(-c3cc(F)c(O)c(F)c3)ccc2C1=O` [Compound 72], the IC50 was found to be 221 nM.
For the molecule `CC1(C)CCc2nc(-c3ccc(O)c(F)c3F)ccc2C1=O` [Compound 73], the IC50 amounted to 122 nM.
For `Oc1c(F)cc(-c2ccc3c(n2)CCCC3OCC2COC2)cc1F` (stereo not shown) [Compound 74], the IC50 turned out to be 441 nM.
Consider `COCC1(C)CCc2nc(-c3cc(F)c(O)c(F)c3)ccc2C1=O` (stereo not shown) [Compound 75], for which the concentration for half-maximal inhibition (IC50) came out at 338 nM.
For the molecule `CCOC1CCCc2nc(-c3cc(F)c(O)c(F)c3)ccc21` (stereo not shown) [Compound 76], the IC50 worked out at 389 nM.
The figure for `Oc1c(F)cc(-c2ccc3c(n2)CCCC3OC2COC2)cc1F` (stereo not shown) [Compound 77] is 1070 nM; for `Cc1cc(-c2ccc3c(n2)CCC(C)(C)C3=O)cc(Cl)c1O` [Compound 78] it is 2170 nM.
On to `COC1(C)CCCc2nc(-c3cc(F)c(O)c(F)c3)ccc21` (stereo not shown) [Compound 79], for which the IC50 stood at 38 nM.
For `CC1(C)CCc2nc(-c3cc(F)c(O)c(F)c3F)ccc2C1=O` [Compound 80], the IC50 is 152 nM.
On to `Cc1cc(-c2ccc3c(n2)CCC(C)(C)C3=O)c(F)c(F)c1O` [Compound 81], for which the IC50 came to 326 nM.
`CCN1CC(C)(C)C(=O)c2ccc(-c3cc(F)c(O)c(F)c3)nc21` [Compound 82]: the IC50 turned out to be 326 nM.
